Source: PMC7677376 (Cell Discovery, 2020)

Molecular target: T1, MlaFEDB (Acinetobacter baumannii, UniProt A0A086HZU3)
T1 construct: gene ttg2A
Conditions: 1 mM vanadate; traps ADP-vanadate at the MlaF ATP sites

T1 sequence (V5V9K5 entry or part of it): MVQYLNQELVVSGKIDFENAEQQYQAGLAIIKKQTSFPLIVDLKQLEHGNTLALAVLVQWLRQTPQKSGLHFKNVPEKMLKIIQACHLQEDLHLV
T1 sequence (V5V9F4 entry or part of it, further chain): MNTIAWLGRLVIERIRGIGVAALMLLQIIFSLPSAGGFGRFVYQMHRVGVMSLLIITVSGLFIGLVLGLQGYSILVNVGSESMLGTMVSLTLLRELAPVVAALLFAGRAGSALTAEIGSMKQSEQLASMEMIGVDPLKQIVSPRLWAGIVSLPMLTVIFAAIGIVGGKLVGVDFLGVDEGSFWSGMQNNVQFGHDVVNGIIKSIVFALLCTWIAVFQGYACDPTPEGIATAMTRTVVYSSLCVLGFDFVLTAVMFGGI
T1 sequence (A0A086HZU3 entry or part of it): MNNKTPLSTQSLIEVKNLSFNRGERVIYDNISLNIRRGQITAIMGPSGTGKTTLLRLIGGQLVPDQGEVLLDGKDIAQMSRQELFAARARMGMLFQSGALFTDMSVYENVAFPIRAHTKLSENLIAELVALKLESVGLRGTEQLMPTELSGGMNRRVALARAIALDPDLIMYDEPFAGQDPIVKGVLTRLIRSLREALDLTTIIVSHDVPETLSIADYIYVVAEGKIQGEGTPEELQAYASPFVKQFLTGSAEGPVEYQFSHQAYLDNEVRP
T1 sequence (V5V921 entry or part of it, further chain): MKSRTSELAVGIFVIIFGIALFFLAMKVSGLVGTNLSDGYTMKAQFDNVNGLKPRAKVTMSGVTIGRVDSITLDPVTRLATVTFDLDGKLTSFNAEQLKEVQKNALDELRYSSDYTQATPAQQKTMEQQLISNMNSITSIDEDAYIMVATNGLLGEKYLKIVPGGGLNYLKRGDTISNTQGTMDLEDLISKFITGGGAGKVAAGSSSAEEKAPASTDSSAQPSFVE

Compound: [O]=[V]([OH])([OH])[OH] [sodium ortho-vanadate]
- % inhibition at 1 mM: ~ 50%
